{
  "source": "patent US20260060972A1",
  "about": "“Quantitative Method of Determining a Mental Status Based on DRD1 and/or DRD5, and its Application Thereof” (priority 2022, published 2026)",
  "key": {"[1]": {"test_system": "2.8-kb human DRD1 gene promoter", "assay": "Dual-luciferase reporter assay of human DRD1 gene promoter in SH-SY5Y cells", "conditions": "for effect on SCH23390/SKF81297-altered DRD1 promoter activity: co-treatment with SCH23390 or SKF81297"}, "human DRD1 gene": {"test_system": "human DRD1 gene", "assay": "DRD1 mRNA expression by quantitative real time-PCR in SH-SY5Y cells", "conditions": "for DRD1 mRNA expression, time response: 10 μM, 12, 18, 24, 30 or 32 hrs; for effect of Haloperidol co-treatment on SCH23390-decreased DRD1 mRNA expression: Haloperidol 10 μM co-treatment 12 hrs", "procedure": "Time-response study. […] The controls received DMSO only. After each time period, the cells were harvested and processed for mRNA analysis of human DRD1 gene.\nAfter treatment, the cells were harvested and processed for mRNA and protein analysis of human DRD1 gene.\nAfter treatment, the cells were harvested and processed for mRNA and protein analysis of human DRD1 gene\nThe concentration and purity of total RNAs was determined by Biospectrometer (Eppendorf, Hauppauge, NY) at 260 nm. Only RNA samples with an A260/A280 ratio between 1.8-2.0 were used for cDNA synthesis. Briefly, 3 μg total RNAs were reversely transcribed into cDNA using Random and Oligo 9dT) Primers (cat #PR-C1181, Fisher Scientific, Hanover Park, IL), Oilgo dT (cat #FERSO131, Fisher Scientific, Hanover Park, IL), and SuperScript II reverse transcriptase (Life Technologies, Carlsbad, CA) following the manufacturer's instructions. The synthesized cDNA samples were stored at −20° C.\nEach cDNA sample, in duplicate, was placed into 96-well plates and mixed with SYBR Select Master Mix (Life Technologies, Carlsbad, CA) and gene-specific primer set. In general, each SYBR reactions in each well contains 5 ml SYBR Select Master Mix, 0.2 μl 10 μM gene-specific primer set, 1.8 μl deionized distilled water, and 3 μl cDNA samples. The qRT-PCR assay was performed in an AriaMx qRT-PCR system (Agilent Technologies; Santa Clara, CA). The relative mRNA expression of each individual gene was calculated according to the comparative delta-delta CT method. The results were expressed as a relative fold, normalized to the expression of 18s rDNA. All quantitative RT-PCR primers were designed using PubMed Primer-BLAST or Primer3 software (NIH) and synthesized by Eurofins (Eurofins MWG Operon USA, Louisville, KY).\nThe sequences of RT-PCR primers of human DRD1 are as follows: • Gene human DRD1, forward primer: [Sequence ID: 1] 5′-[sequence]-3′, reverse primer: [Sequence ID: 2] 5′-[sequence]-3′ • Gene 18s rDNA, NM number NR_003278.3, forward primer [Sequence ID: 3] 5′-[sequence]-3′; reverse primer [Sequence ID: 4] 5′-[sequence]-3′"}, "DRD1 membrane protein": {"test_system": "DRD1 membrane protein", "conditions": "treatment for 36 hrs", "procedure": "The cultured SH-SY5Y cells were pretreated with complete EMEM medium containing 10 μM SCH23390 for 6 hrs or 12 hrs. […] After treatment, the cells were harvested and processed for mRNA and protein analysis of human DRD1 gene.\nThe cultured SH-SY5Y cells were pretreated with complete EMEM medium containing 10 μM SKF81297 for 6 hrs or 12 hrs. […] After treatment, the cells were harvested and processed for mRNA and protein analysis of human DRD1 gene\nThe membrane proteins were extracted using the mem-PER Plus membrane protein extraction kit (ThermoFisher Scinetific, Waltham, MA). The protein concentrations were semi-quantified spectrophotometrically at 280 nm. […] Then, proteins were electro-transferred to a polyvinyl difluoride (PVDF) membrane. […] After the block, the membrane was incubated with primary antibody (human DRD1 antibody, 1:1000) overnight at 4° C. […] The membrane was briefly washed 3 times using fresh TBS, then incubated with Pierce High Sensitivity Streptavidin HRP-linked secondary antibody (1:5000) in TBS supplemented with 0.5% BSA for 30 minutes at room temperature. The membrane was rinsed 3 times using fresh TBS. The immunoreactive protein bands in the membrane were visualized via UVP Biospectrum Imaging system (Upland, CA) using with Immobilon Chemiluminescence reagents (Millipore, Billerica, MA). Protein bands analysis was performed using the ImageJ (NIH, Bethesda, MD)."}, "[2]": {"conditions": "10 μM, treatment for 18 hrs (FIG. 2A, 3A)"}, "[3]": {"conditions": "10 μM, treatment for 24 hrs (FIG. 2A, 3A)"}},
  "note": "“Also recorded” adds a separate entry of the source.",
  "data": [
    {"smiles": "CN(C)C(=O)N[C@H]1CC[C@H](CCN2CCN(c3cccc(Cl)c3Cl)CC2)CC1", "note": "[Cariprazine]", "values": [
      {"measurement": "effect on SCH23390/SKF81297-altered DRD1 promoter activity", "setting": "[1]", "result": "trans-stabilize SCH23390/SKF81297-altered DRD1 promoter activity"}
    ]},
    {"smiles": "O=C(CCCN1CCC(O)(c2ccc(Cl)cc2)CC1)c1ccc(F)cc1", "note": "[Haloperidol]", "values": [
      {"measurement": "DRD1 mRNA expression, time response", "setting": "human DRD1 gene; SH-SY5Y cells (FIG. 1A)", "result": "did not alter DRD1 mRNA expression at any time points"},
      {"measurement": "DRD1 mRNA and protein expression, treatment alone (summary)", "setting": "human DRD1 gene; 10 μM, SH-SY5Y cells", "result": "does not alter DRD1 expression"},
      {"measurement": "DRD1 mRNA expression, treatment alone", "setting": "human DRD1 gene; [2]", "result": "did not alter DRD1 mRNA expression"},
      {"measurement": "DRD1 mRNA expression, treatment alone", "setting": "human DRD1 gene; [3]", "result": "did not alter DRD1 mRNA expression"},
      {"measurement": "effect of Haloperidol co-treatment on SKF81297-increased DRD1 mRNA expression", "setting": "human DRD1 gene; Haloperidol co-treatment for 12 hrs (FIG. 3A)", "result": "completely diminished SKF81297-increased DRD1 mRNA expression"},
      {"measurement": "effect of Haloperidol co-treatment on SCH23390-decreased DRD1 mRNA expression", "setting": "human DRD1 gene; SCH23390 10 μM for 18 hrs", "result": "completely reversed"},
      {"measurement": "effect of Haloperidol co-treatment on SCH23390-decreased DRD1 mRNA expression", "setting": "human DRD1 gene; SCH23390 10 μM for 24 hrs", "result": "not reversed"},
      {"measurement": "effect of Haloperidol co-treatment on SCH23390-decreased DRD1 mRNA and protein expression (summary)", "setting": "human DRD1 gene; SH-SY5Y cells (FIGS. 2A-2E)", "result": "reverses SCH23390-decreased DRD1 mRNA and protein expression; also recorded: reversed"},
      {"measurement": "effect of Haloperidol co-treatment on SKF81297-increased DRD1 mRNA and protein expression (summary)", "setting": "human DRD1 gene; SH-SY5Y cells (FIGS. 3A-3E)", "result": "attenuated SKF81297-increased DRD1 mRNA and protein expression"},
      {"measurement": "human DRD1 gene promoter activity, treatment alone", "setting": "[1]; 2.8-kb promoter luciferase reporter, SCH23390 and SKF81297 for 36 hrs (FIG. 4A, 4B)", "result": "did not change human DRD1 gene promoter activity"},
      {"measurement": "effect of haloperidol cotreatment on SCH23390-repressed DRD1 promoter activity", "setting": "[1]; SCH23390 36 hrs, haloperidol cotreatment 24 or 36 hrs (FIG. 4A)", "result": "reversed"},
      {"measurement": "effect of haloperidol co-treatment on SKF81297-activated DRD1 promoter activity", "setting": "[1]; SKF81297 36 hrs, haloperidol co-treatment 24 and 36 hrs (FIG. 4B)", "result": "markedly attenuated"},
      {"measurement": "effect on SCH23390/SKF81297-altered DRD1 promoter activity", "setting": "[1]", "result": "reversed SCH23390/SKF21897-altered DRD1 promoter activity; also recorded: reversed either SCH23390 or SKF81297-altered human DRD1 promoter activity"}
    ]},
    {"smiles": "Cc1nc2n(c(=O)c1CCN1CCC(c3noc4cc(F)ccc34)CC1)CCCC2", "note": "[Risperidone]", "values": [
      {"measurement": "relative Luciferase activity of DRD1 under treatment of SCH and antipsychotic", "setting": "[1]; co-treatment of SCH (FIG. 5A, 6A)", "result": "partial DRD1 antagonist effect"},
      {"measurement": "relative Luciferase activity of DRD1 under treatment of SKF and antipsychotic", "setting": "[1]; co-treatment of SKF (FIG. 5B, 6B)", "result": "partial DRD1 antagonist effect"},
      {"measurement": "effect on SCH23390/SKF81297-altered DRD1 promoter activity", "setting": "[1]", "result": "trans-stabilize SCH23390/SKF81297-altered DRD1 promoter activity; also recorded: reverse and normalize either SCH23390 or SKF81297-altered human DRD1 promoter activity"}
    ]},
    {"smiles": "CN1CCc2cc(Cl)c(O)cc2[C@@H](c2ccccc2)C1", "note": "[SCH23390, SCH-23390]", "values": [
      {"measurement": "decrease of DRD1 membrane protein", "setting": "DRD1 membrane protein", "result": "more than 70%"}
    ]},
    {"smiles": "Oc1cc2c(c(Cl)c1O)CCNCC2c1ccccc1", "note": "(stereo not drawn) [SKF81297, SKF-81297]", "values": [
      {"measurement": "DRD1 mRNA expression, time response", "setting": "human DRD1 gene; SH-SY5Y cells (FIG. 1A)", "result": "time-dependently increased DRD1 mRNA expression"},
      {"measurement": "increase of DRD1 mRNA expression", "setting": "human DRD1 gene; 10 μM, 24 hrs later, SH-SY5Y cells (FIG. 1A)", "result": 6, "unit": "fold"},
      {"measurement": "DRD1 mRNA expression 30 hrs later and thereafter", "setting": "human DRD1 gene; 10 μM, 30 hrs later and thereafter, SH-SY5Y cells", "result": "decreased to basal level"},
      {"measurement": "DRD1 mRNA and protein expression, treatment alone (summary)", "setting": "human DRD1 gene; 10 μM, SH-SY5Y cells", "result": "increases DRD1 mRNA and protein expression in a time-dependent manner"},
      {"measurement": "DRD1 mRNA expression, treatment alone", "setting": "human DRD1 gene; [2]", "result": "increased human DRD1 mRNA expression"},
      {"measurement": "DRD1 mRNA expression, treatment alone", "setting": "human DRD1 gene; [3]", "result": "increased human DRD1 mRNA expression"}
    ]}
  ]
}
